In patent US8932853B2, “Method for manufacturing pancreatic-hormone-producing cells” (Takeda Pharmaceutical Company Limited, priority 2009, dated 2015):
“Also recorded” adds a separate entry of the source.

Columns and labels:
[1] = test system: endodermal cells induced from human iPS cells; type: cell-based; conditions: added simultaneously with dorsomorphin (1 μM) and retinoic acid (2 μM) day 3 to day 10; SB431542 5 μM, ALK5 inhibitor II 2 μM, A-83-01 0.2 μM, TGFβRI kinase inhibitor VIII 0.2 μM; vs dorsomorphin and retinoic acid alone
Description: The dorsomorphin is an inhibitor of AMP-activated protein kinase (AMPK), and an inhibitor of ALK2, ALK3 and ALK6 from among activin receptor-like kinases (ALK). In addition, SB431542 is an inhibitor of ALK4, ALK5 and ALK7 from among ALKs.
As a control, the medium was changed to one added with dorsomorphin and retinoic acid alone (Ctrl). […] After the culture, the expression level of NGN3, which is progenitor cells of pancreatic hormone-producing cells marker, was measured in the same manner as in Example 1.

[2] = test system: progenitor cells of pancreatic hormone-producing cells induced from human iPS cells; experiment: quantitative RT-PCR of insulin and PDX1 after step (4); type: cell-based; conditions: added in step (4) from day 10; forskolin 10 μM, nicotinamide 10 mM, dexamethasone 10 μM, ALK5 inhibitor II 5 μM; measured on day 12, 16 and 20; vs control without inducing factors
Description: The expression level of PDX1, which is pancreatic progenitor cells marker, and insulin, which is pancreatic β cells (insulin-producing cells) marker, was measured in the same manner as in Example 1.
The medium was changed once on day 7 of induction. […] The medium was changed every 3-4 days. After culture, the expression level of insulin was measured in the same manner as in Experimental Example 1.
The medium was changed once on day 7 of induction. […] The medium was changed every 5 days.
After culture under each condition, the expression levels of insulin in the cells on day 12 of differentiation induction, on day 16 of differentiation induction and day 20 of differentiation induction were measured in the same manner as in Example 1.

[3] = test system: progenitor cells of pancreatic hormone-producing cells induced from human iPS cells; experiment: immunofluorescent staining with anti-insulin antibody after step (4); type: cell-based; conditions: each added alone in step (4), day 10 to day 21; forskolin 10 μM, dibutyl cAMP 500 μM, IBMX 200 μM, ALK5 inhibitor II 5 μM, A-83-01 0.5 μM, SB431542 10 μM, TGFβRI kinase inhibitor VIII 2 μM, dexamethasone 10 μM, hydrocortisone 5 μM, betamethasone 2 μM, beclomethasone 1 μM
[4] = test system: human iPS cells (253G1 strain); experiment: quantitative RT-PCR of BRACHYURY and SOX17 during induction of human iPS cells into endodermal cells, steps (1)-(2); type: cell-based; conditions: added with activin A (100 ng/ml) only the first day, CHIR99021 3 μM, Wnt3a 25 ng/ml, relative to GAPDH; for expression level of SOX17 (endodermal marker): then activin A alone 2 days, days 2-3; for expression level of BRACHYURY (primitive streak marker): day 1 of differentiation induction
Source text: As a first stage for induction of differentiation of human iPS cells (iPS cells obtained by introducing Oct3/4 gene, Klf4 gene and Sox2 gene: see Nat Biotechnol 2008; 26: 101-106) into pancreas cells (particularly pancreatic hormone-producing cells), differentiation of human iPS cells was induced into endodermal cells by using a 96 well plate.
As the human iPS cells, 253G1 strain (iPS cell line produced by expressing OCT4/SOX2/KLF4 with retrovirus; Nature Biotechnology 26, 101-106) was used. Maintenance culture of the iPS cells in an undifferentiated state was performed using mitomycin-treated mouse fibroblast (MEFs) seeded on a gelatin-coated plate as feeder cells, and a medium for primate ES cells (ReproCELL Incorporated) added with 4 ng/ml bFGF (PeproTech EC) and 0.5× Penicillin-streptomycin (SIGMA) as a medium at 37° C. under 5% CO2. The medium was changed every day, the cell mass was detached every 4-5 days using a cell detachment solution for primate ES cell (ReproCELL Incorporated), and passaged by seeding on new feeder cells.
As a preculture for differentiation induction into endodermal cells, undifferentiated iPS cells were seeded in a 96 well plate. First, iPS cells maintained in a cell mass was treated with 0.25% trypsin-1 mM EDTA solution (GIBCO) and dissociated until they became single cells. Then, iPS cells dispersed in a medium were seeded in a 96 well plate at a density of 2×10^4 cells per well and cultured at 37° C. under 5% CO2 for 1 day. The 96 well plate used had been gelatin-coated, seeded with 5×10^3 MEFs and cultured at 37° C. under 5% CO2 for 5 hr. In addition, as a culture medium for seeding, a medium for primate ES cells added with 10 μM Y-27632 (Wako Pure Chemical Industries, Ltd.) was used. One day after seeding, the medium was changed to a medium for primate ES cells without Y-27632, and the cells were further cultured for 2 days until they became confluent.
Differentiation of iPS cells into endodermal cells was induced according to the following method. First, the confluent cells were washed with RPMI medium (GIBCO), RPMI medium containing various differentiation-inducing factors and 2% fetal bovine serum (FBS) was added, and the mixture was cultured for 1 day. […]
To examine variation in the expression of endoderm differentiation marker when cultured under each condition, differentiation-induced cells were recovered over time, and the total RNA fractions were purified using RNeasy96 (Qiagen). Using a PrimeScript RT reagent kit (Takara Bio Inc.), cDNA was synthesized, and quantitative RT-PCR was performed, whereby the gene expression level of BRACHYURY, which is a primitive streak marker, and SOX17, which is an endodermal marker, was measured.

[5] = test system: human iPS cells (253G1 strain); experiment: immunofluorescent staining with anti-SOX17 antibody on day 3 of differentiation induction; type: cell-based
Description: To examine expression of SOX17 protein after culture for 3 days, immunofluorescent staining using an anti-SOX17 antibody was performed. After culture up to day 3 in the same manner as in FIG. 1, the cells were fixed with 2% para-formaldehyde (PFA) for 10 min and further for 20 min with 4% PFA at room temperature.
Whether even use of a GSK3 inhibitor other than CHIR99021 in step (1) enables differentiation induction into endodermal cells was examined. The differentiation of human iPS cells into endodermal cells was induced according to the following method. […] Thereafter, the cells were washed with RPMI medium (GIBCO), and cultured for 1 day in RPMI medium containing various GSK3 inhibitors, activin A (100 ng/ml) and 2% fetal bovine serum (FBS). […] As a control, the cells were treated with a medium added only with activin A and free of GSK3 inhibitor. After culture for 1 day, the cells were washed with RPMI medium, and further cultured for 2 days in RPMI medium added with 2% FBS and 100 ng/ml activin A.
To examine expression of SOX17 protein on day 3 of differentiation induction, immunofluorescent staining using an anti-SOX17 antibody was performed. 4% PFA was added to the cells on day 3 of culture under each condition, the mixture was incubated at room temperature for 30 min to fix the cells.

[6] = test system: endodermal cells induced from human iPS cells; experiment: immunofluorescent staining with anti-PDX1 antibody after step (3); conditions: added simultaneously with retinoic acid (2 μM) for 7 days, day 3 to day 10; Noggin 100 ng/ml, dorsomorphin 1 μM
[7] = added with activin A (100 ng/ml) for 1 day, then activin A alone 2 days, CHIR99021 3 μM, Wnt3a 25 ng/ml, SB415286 3 μM, SB216763 20 μM

Molecule | expression level of SOX17 (endodermal marker) [4] | expression level of BRACHYURY (primitive streak marker) [4] | ratio of cells expressing SOX17 protein [5, 7] | differentiation into PDX1-positive cells [6] | further results
Cc1cccc(-c2n[nH]cc2-c2ccc3ncccc3n2)n1 [ALK5 inhibitor II, 2-[3-[6-methylpyridin-2-yl]-1H-pyrazol-4-yl]-1,5-naphthyridine] | – | – | – | – | expression level of NGN3 [1]: increased remarkably; expression level of insulin [2]: increased markedly; also recorded: high value; positive rate of insulin-expressing cells [3]: remarkably increased; also recorded: induced differentiation into insulin-positive cells with high efficiency
Cc1c[nH]c(-c2cnc(NCCNc3ccc(C#N)cn3)nc2-c2ccc(Cl)cc2Cl)n1 [CHIR99021, 6-[[2-[[4-(2,4-dichlorophenyl)-5-(4-methyl-1H-imidazol-2-yl)-2-pyrimidinyl]amino]ethyl]amino]nicotinonitrile] | increased markedly; also recorded: high value | transiently increased; also recorded: highest value | highest; also recorded: increased | – | –
c1cc(-c2cnn3cc(-c4ccc(OCCN5CCCCC5)cc4)cnc23)ccn1 [dorsomorphin, 6-[4-(2-piperidin-1-ylethoxy)phenyl]-3-pyridin-4-ylpyrazolo[1,5-a]pyrimidine] | – | – | – | remarkably induced; also recorded: many cells were induced into PDX1-positive cells | –
activin A: 24 kD peptidic cell proliferation and differentiation factor belonging to the TGFβ family; activator of activin receptor-like kinase-4,7 (protein, UniProt P08476 311-426, looked up, Inhibin beta A chain) Inhibin beta A chain: GLECDGKVNICCKKQFFVSFKDIGWNDWIIAPSGYHANYCEGECPSHIAGTSGSSLSFHSTVINHYRMRGHSPFANLKSCCVPTKLRPMSMLYYDDGQNIIKKDIQNMIVEECGCS | – | – | – | – | ratio of cells expressing SOX17 protein ([5]; activin A (100 ng/ml) alone for 3 days (Comparative Example 1)): a part of the cells also expressed SOX17 protein
Wnt3a: differentiation-inducing factor generally used for endoderm induction along with activin A (protein, UniProt P56704 19-352, looked up) Protein Wnt-3a: SYPIWWSLAVGPQYSSLGSQPILCASIPGLVPKQLRFCRNYVEIMPSVAEGIKIGIQECQHQFRGRRWNCTTVHDSLAIFGPVLDKATRESAFVHAIASAGVAFAVTRSCAEGTAAICGCSSRHQGSPGKGWKWGGCSEDIEFGGMVSREFADARENRPDARSAMNRHNNEAGRQAIASHMHLKCKCHGLSGSCEVKTCWWSQPDFRAIGDFLKDKYDSASEMVVEKHRESRGWVETLRPRYTYFKVPTERDLVYYEASPNFCEPNPETGSFGTRDRTCNVSSHGIDGCDLLCCGRGHNARAERRREKCRCVFHWCCYVSCQECTRVYDVHTCK | also lower than with a treatment with CHIR99021; also recorded: high value | lower than with a treatment with CHIR99021 | a part of the cells also expressed SOX17 protein; also recorded: remarkably detected | – | –
Noggin: BMP antagonist (protein, UniProt Q13253 28-232, looked up) Noggin: QHYLHIRPAPSDNLPLVDLIEHPDPIFDPKEKDLNETLLRSLLGGHYDPGFMATSPPEDRPGGGGGAAGGAEDLAELDQLLRQRPSGAMPSEIKGLEFSEGLAQGKKQRLSKKLRRKLQMWLWSQTFCPVLYAWNDLGSRFWPRYVKVGSCFSKRSCSVPEGMVCKPSKSVHLTVLRWRCQRRGGQRCGWIPIQYPIISECKCSC | – | – | – | remarkably induced; also recorded: many cells were induced into PDX1-positive cells | –
